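48-hour exposure; five concentrations; linearly interpolated endpoints. GI50 marks 50% less growth.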 Activity calls are given as the source filed them. Cut-off read from the data, not from the text of the source: active = GI50 up to about 1.1 µM and inactive = higher.
How the values were obtained:
Experiment in all cases: NCI tumour cell line growth inhibition, 48 h
[1] = test system: TK-10
[2] = test system: K562
[3] = test system: SK-MEL-2
[4] = test system: DU-145
[5] = test system: OVCAR-5
[6] = test system: KM12
[7] = test system: NCI-H226
[8] = test system: U-251
[9] = test system: Malme-3M
[10] = test system: KM-20L2
[11] = test system: LOX IMVI
[12] = test system: OVCAR-4
[13] = test system: OVCAR-8
[14] = test system: A498
[15] = test system: IGROV-1
[16] = test system: SF-295
[17] = test system: UACC-257
[18] = test system: HOP-62
[19] = test system: COLO 205
[20] = test system: CCRF-CEM

| SMILES | GI50 [1] | GI50 [2] | GI50 [3] | GI50 [4] | GI50 [5] | GI50 [6] | GI50 [7] | GI50 [8] | GI50 [9] | GI50 [10] | GI50 [11] | GI50 [12] | GI50 [13] | GI50 [14] | GI50 [15] | GI50 [16] | GI50 [17] | GI50 [18] | GI50 [19] | GI50 [20] |
| --- | --- | --- | --- | --- | --- | --- | --- | --- | --- | --- | --- | --- | --- | --- | --- | --- | --- | --- | --- | --- |
| COc1cc2c(c(OC)c1OC)-c1ccc(SC)c(=O)cc1C(NC(=O)c1ccccc1)CC2 (stereo not given) | 240 nM (active) | < 10 nM (active) | < 10 nM (active) | < 10 nM (active) | 303 nM (active) | < 10 nM (active) | 46.5 nM (active) | < 10 nM (active) | < 10 nM (active) | < 10 nM (active) | < 10 nM (active) | 1450 nM (inactive) | < 10 nM (active) | < 10 nM (active) | < 10 nM (active) | < 10 nM (active) | 526 nM (active) | < 10 nM (active) | < 10 nM (active) | < 10 nM (active) |
| CC(C)=C1CCC(CN2CCOCC2)C1=O (stereo not given) | 6210 nM (inactive) | 1720 nM (inactive) | 19000 nM (inactive) | 16400 nM (inactive) | 18200 nM (inactive) | 29400 nM (inactive) | 21200 nM (inactive) | 32100 nM (inactive) | 3580 nM (inactive) | 16400 nM (inactive) | 19900 nM (inactive) | 8180 nM (inactive) | 7550 nM (inactive) | 33700 nM (inactive) | 20300 nM (inactive) | 98400 nM (inactive) | 16200 nM (inactive) | > 55500 nM (inactive) | 4660 nM (inactive) | 2490 nM (inactive) |

— ChEMBL document CHEMBL1201862, “PubChem BioAssay data set” (2004)
